The text below walks through data of PubChem BioAssay AID743153 (The Scripps Research Institute Molecular Screening Center, 2013).

For this experiment, the target named is methionyl-tRNA synthetase (Trypanosoma brucei brucei). The experiment can be described thus: inhibition of trypanosomal methionyl-tRNA synthetase – biochemical, luminescence, dose response, round 1, late-stage follow-up (AID 743153). The conditions noted are these: recombinant T. brucei MetRS, luminescence (ATP depletion).

Activity calls are given as the source filed them. No rule for the calls is given here.

One may read the IC50 as the point on the concentration scale where inhibition reaches its midpoint. For the compound `O=C(NCCc1nc2ccccc2[nH]1)c1ccc(Cl)cc1Cl`, the IC50 is 0.905 µM.

As to `CCN(CC)C(=O)C(=O)c1cn(CC(=O)Nc2ccccc2OC)c2ccccc12`, the IC50 is > 119 µM (inactive).

With `O=C(Cn1cc(C(=O)c2ccccc2)c2ccccc21)Nc1cccc(C(F)(F)F)c1`, the IC50 is 6.8 µM.

Consider `Cc1ccc(C(=O)NCCc2nc3ccccc3[nH]2)cc1[N+](=O)[O-]`, for which the IC50 was 2.37 µM.

With `CNC(=S)N(CCc1ccccc1)C1CC(=O)N(c2ccc(Br)cc2)C1=O` (stereo unspecified), the IC50 is 0.192 µM.

Regarding `CC1Cc2ccccc2N1C(=O)Cn1cc(C(=O)C(=O)N2CCOCC2)c2ccccc21` (stereo unspecified), the IC50 is > 119 µM (inactive).

As for `O=C(Cn1cc(C(=O)C(=O)N2CCOCC2)c2ccccc21)NCC1CCCO1` (stereo unspecified), the IC50 was > 119 µM (inactive).

With `O=C(NCCc1nc2ccccc2[nH]1)c1ccc(Cl)c(Cl)c1`, the half-maximal inhibitory concentration (IC50) is 0.609 µM.

For `Cc1cc2cc(C(=O)N3CCCC(c4nc5ccccc5[nH]4)C3)ccc2o1` (stereo unspecified), the IC50 was > 39.5 µM (inactive).

For the compound `CCC(=O)c1cn(CC(=O)Nc2cccc(C(F)(F)F)c2)c2ccccc12`, the IC50 is > 39.5 µM (inactive).

As for `O=C(C(=O)N1CCOCC1)c1cn(CC(=O)N2CCCc3ccccc32)c2ccccc12`, the IC50 is > 13.2 µM (inactive).

As for `Cn1c(CCNC(=O)c2ccc(Cl)cc2)nc2ccccc21`, the IC50 is > 39.5 µM (inactive).

Turning to `COCCc1nc2ccc(C(=O)NCCc3nc4ccc(OC)cc4[nH]3)cc2o1`, the IC50 was > 39.5 µM (inactive).

`COc1cccc(NC(=O)C2CC(=O)n3c(nc4ccccc43)N2)c1` (stereo unspecified): the IC50 result was “inactive”.

Take `CCc1ccc2c(c1)c1nnc(SCC(=O)Nc3ccc4c(c3)OCO4)nc1n2C`: the IC50 was > 119 µM (inactive).

For `COc1ccccc1NC(=O)CSc1nnc2c(n1)[nH]c1ccc(C)cc12`, the IC50 entry is “inactive”.

As to `CC(=O)c1cn(CC(=O)Nc2cccc(C(F)(F)F)c2)c2ccccc12`, the IC50 was 6.2 µM.

Turning to `CC(=O)N(CCc1ccccc1)C1CC(=O)N(c2ccc(Cl)cc2)C1=O` (stereo unspecified), the IC50 was > 39.5 µM (inactive).

With `CCN(CC)C(=O)C(=O)c1cn(CC(=O)Nc2cccc(OC)c2)c2ccccc12`, the IC50 was 1.84 µM.

Turning to `O=C(Cn1cc(C(=O)C2CC2)c2ccccc21)Nc1cccc(C(F)(F)F)c1`, the IC50 entry was “inactive”.

As to `O=C(CSC1CC(=O)N(c2cccc(Cl)c2)C1=O)Nc1ccc(Br)cc1` (stereo unspecified), the IC50 result is “inactive”.

As to `CCCCn1c(CCNC(=O)c2ccc(F)cc2)nc2ccccc21`, the IC50 was > 39.5 µM (inactive).

Regarding `CCN(C(=O)Cn1cc(C(=O)C(=O)N2CCOCC2)c2ccccc21)c1ccccc1`, the IC50 is > 119 µM (inactive).

On to `Cc1cccc2[nH]c(C3CCCN(C(=O)c4cccc5cccnc45)C3)nc12` (stereo unspecified), for which the IC50 is > 39.5 µM (inactive).

`CC(=O)N(CCc1ccccc1)C1CC(=O)N(c2ccc(Br)cc2)C1=O` (stereo unspecified): the IC50 was > 39.5 µM (inactive).

Turning to `CCN(CC)C(=O)C(=O)c1cn(CC(=O)Nc2cccc(C(F)(F)F)c2)c2ccccc12`, the IC50 was 0.11 µM.

On to `CCN(CCc1nc2ccc(C)cc2[nH]1)C(=O)c1ccc2ncccc2c1`, for which the IC50 was > 119 µM (inactive).

Regarding `O=C(Nc1ccc(F)c(Cl)c1)C1CC(=O)n2c(nc3ccccc32)N1` (stereo unspecified), the IC50 is 1.18 µM.

Turning to `CCc1ccc2[nH]c3nc(SCC(=O)NCc4cccc(OC)c4)nnc3c2c1`, the IC50 was > 39.5 µM (inactive).

For `O=C(NCCc1nc2ccccc2[nH]1)c1ccc(Cl)cc1`, the IC50 is 4.86 µM.

In the case of `Cc1ccc(C(=O)NCCc2nc3ccccc3[nH]2)cc1C`, the IC50 is > 13.2 µM (inactive).

Take `CCN(CC)C(=O)C(=O)c1cn(CC(=O)N2CCCc3ccccc32)c2ccccc12`: the IC50 is > 119 µM (inactive).

Regarding `CC(C)c1nc2ccc(C(=O)N(C)CCc3nc4ccc(F)cc4[nH]3)cc2o1`, the IC50 was > 119 µM (inactive).

As for `O=C(CSc1nnc2c(n1)[nH]c1ccc(Br)cc12)NCc1ccccc1`, the IC50 was 0.626 µM.

Take `O=C1CC(NCCc2ccccc2)C(=O)N1c1ccc(Br)cc1` (stereo unspecified): the IC50 is > 119 µM (inactive).

Consider `Cc1ccc2[nH]c3nc(SCC(=O)Nc4ccc(C(F)(F)F)cc4)nnc3c2c1`, for which the IC50 is > 119 µM (inactive).

As to `Cc1cccc(C(=O)NCCc2nc3ccccc3n2CCOc2ccccc2)c1`, the IC50 was > 39.5 µM (inactive).

In the case of `O=C(Cn1cc(C(=O)C(=O)N2CCCC2)c2ccccc21)Nc1ccccc1`, the IC50 was > 119 µM (inactive).

Regarding `Cc1cccc(NC(=O)C2CC(=O)n3c(nc4ccccc43)N2)c1` (stereo unspecified), the IC50 is > 39.5 µM (inactive).

Consider `COc1ccc(CCN(C(=O)c2cccc(F)c2)C2CC(=O)N(c3ccc(Br)cc3)C2=O)cc1` (stereo unspecified), for which the IC50 was > 119 µM (inactive).

In the case of `COc1ccc(CCN(C(=S)Nc2ccccc2)C2CC(=O)N(c3ccc(Cl)cc3)C2=O)cc1` (stereo unspecified), the IC50 was 0.321 µM.

For the compound `O=C(NCCc1nc2ccccc2[nH]1)c1c(F)cccc1F`, the IC50 is > 119 µM (inactive).

With `O=C(Cn1cc(C(=O)C(=O)N2CCOCC2)c2ccccc21)NCc1ccccc1`, the IC50 is > 119 µM (inactive).

Regarding `COc1ccccc1NC(=O)Cn1cc(C(=O)C(=O)N2CCOCC2)c2ccccc21`, the IC50 was > 119 µM (inactive).

In the case of `Cc1ccc(CNC(=O)CSc2nnc3c(n2)[nH]c2ccc(C)cc23)cc1`, the IC50 entry was “inactive”.

Consider `COc1ccc(NC(=O)CSc2nnc3c4cc(C)ccc4n(C)c3n2)cc1`, for which the IC50 is > 119 µM (inactive).

In the case of `Cc1cccc2[nH]c(CCN(C)C(=O)c3cccc(C4CCNC4)c3)nc12` (stereo unspecified), the IC50 is > 119 µM (inactive).

On to `COc1ccc(NC(=O)C2CC(=O)n3c(nc4ccccc43)N2)cc1` (stereo unspecified), for which the IC50 is > 119 µM (inactive).

With `O=C(Cn1cc(C(=O)COc2ccccc2)c2ccccc21)Nc1cccc(C(F)(F)F)c1`, the IC50 was > 39.5 µM (inactive).

In the case of `O=C(Cn1cc(C(=O)c2ccco2)c2ccccc21)Nc1cccc(C(F)(F)F)c1`, the IC50 was 1.39 µM.

As for `CCN(CC)C(=O)C(=O)c1cn(CC(=O)N(CC)c2ccccc2)c2ccccc12`, the IC50 is > 39.5 µM (inactive).
